Here are results for 8 compounds from ChEMBL document CHEMBL1129259 (J Med Chem, 1996).

The target of this test is Melatonin receptor (Gallus gallus, UniProt P49288+P51050+P49285). In words: In vitro binding affinity against melatonin receptor using 2-[125I]iodomelatonin (0.05 nM) and chicken brain membranes. More on the design: species or system Membrane.
For orientation: Ki means the equilibrium dissociation constant of an inhibitor or competing ligand from its target. Low readings indicate a stronger hold on the target, high ones a looser hold on the target. In the case of `COc1cc2ccccc2c2c1CC(NC(C)=O)CC2` (stereo not drawn), the Ki came out at 168 nM.

As to `COc1ccc2ccc(O)c3c2c1CC(NC(C)=O)C3` (stereo not drawn), the affinity corresponds to a Ki of 22.8 nM.

Take `CCC(=O)NC1Cc2cccc3ccc(OC)c(c23)C1` (stereo not drawn): the Ki worked out at 6 nM.

In the case of `COc1ccc2cccc3c2c1CC(NC(C)=O)C3` (stereo not drawn), the Ki was 28.7 nM.

`COc1c2c(cc3ccccc13)CCC(NC(C)=O)C2` (stereo not drawn) registered an inhibition constant Ki of 273 nM.

`COc1ccc2ccc(OC)c3c2c1CC(NC(C)=O)C3` showed a Ki of 0.7 nM.

The compound `CC(=O)NC1Cc2cccc3cccc(c23)C1` returned a Ki of 195 nM.

In turn, `CC(=O)NCCc1c[nH]c2ccc(O)cc12` [ACETYLSEROTONIN] came in with a Ki of 1640 nM.
